One series relates to S. aureus UC-76. Briefly: Antibacterial assay (Test A), standard microtitration, MIC. The format is cell-based. The note with it: Gram Positive Bacteria, strain UC-76; for MIC: Staphylococcus aureus, UC76. Here is the method: (§1) The compounds of the present invention were tested against an assortment of Gram-negative and Gram-positive organisms using standard microtitration techniques (Cohen et. al., Antimicrob., 1985; 28: 766; Heifetz, et. al., Antimicrob., 1974; 6: 124).

The subject of a further series is E. faecalis MGH-2. Described as above. The format is cell-based. Conditions: Gram Positive Bacteria, strain MGH-2; for MIC: Enterococcus faecalis, MGH2. On the procedure:
as §1

Another series concerns S pyogenes C203. The description is as above. The format is cell-based. Conditions: Gram Positive Bacteria; strain C203. On the procedure:
as §1

Another series deals with E. coli Tol C. Described as above. The format is cell-based. Conditions: for MIC: Escherichia coli, read-out: MIC E. coli Tol C; for MIC E. coli Tol C: Gram Negative Bacteria, strain Tol C. On the procedure: as §1
The test system of another series is M. catarrhalis BC3534. The series is described as above. The format is cell-based. The note with it: strain BC3534; for MIC: Moraxella catarrhalis, BC3534, Gram Negative Bacteria; for MIC M. catarrhalis BC3534: Gram Negative Bacteria. On the procedure: as §1
The next series relates to H. influenzae HI3542. The series is described as above. The format is cell-based. The note with it: Gram Negative Bacteria, strain HI3542; for MIC: Haemophilus influenzae. On the procedure:
as §1

Converted amounts (≈) assume the structure as drawn.

By melting point is commonly meant the temperature, or range, at which the solid turns liquid. `CC(=O)NC[C@H]1CN(c2ccc3c(c2)CCSC(=CN(C)C)C3=O)C(=O)O1` returned a melting point of 221 to 222 °C.
The same measure, in the same setting: next, `CC(=O)NC[C@H]1CN(c2ccc3c(c2)CCSc2cn[nH]c2-3)C(=O)O1`: 186 to 187 °C; `CC(=O)NC[C@H]1CN(c2ccc3c(c2)CCSc2cnc(N)nc2-3)C(=O)O1`: 190 to 191 °C (dec.); `CC(=O)NC[C@H]1CN(c2ccc3c(c2)CCS(=O)(=O)C(=CN(C)C)C3=O)C(=O)O1`: 261 to 263 °C.
On the same count and under the same terms, in the case of `CC(=O)NC[C@H]1CN(c2ccc3c(c2)CCS(=O)(=O)c2cn[nH]c2-3)C(=O)O1` it was 292 to 293 °C; in that of `CC(=O)NC[C@H]1CN(c2ccc3c(c2)CCS(=O)(=O)c2cnc(N)nc2-3)C(=O)O1`, 211 to 213 °C (dec.); in that of `CC(=O)NC[C@H]1CN(c2ccc3c(c2)CCS(=O)(=O)c2cnoc2-3)C(=O)O1`, 211 to 212 °C.
On the same count and under the same terms, next, `CC(=O)NC[C@H]1CN(c2ccc3c(c2)CCSCC3=O)C(=O)O1`: 232 to 233 °C; `CC(=O)NC[C@H]1CN(c2ccc3c(c2)CCNC(=O)N3)C(=O)O1`: 177 to 178 °C.
As to `CC(=O)NC[C@H]1CN(c2ccc3c(c2)CCC(N)C(=O)N3)C(=O)O1` (stereo partly drawn), the melting point was > 160 °C (dec.).
`CC(=O)NC[C@H]1CN(c2ccc3c(c2)OCCc2c(-c4ccc(F)cc4)n[nH]c2-3)C(=O)O1`: the figures for the MIC in the series with S. aureus UC-76, in the series on E. faecalis MGH-2 and against S pyogenes C203 were 1 µg/mL (≈ 2.29 µM), 1 µg/mL (≈ 2.29 µM) and 0.5 µg/mL (≈ 1.15 µM), respectively.
Take `CC(=O)NC[C@H]1CN(c2ccc3c(c2)OCCc2c(-c4ccncc4)n[nH]c2-3)C(=O)O1` [Example 22, (S)—N-[2-Oxo-3-(3-pyridin-4-yl-4,5-dihydro-1H-6-oxa-1,2-diaza-benzo[e]azulen-8-yl)-oxazolidin-5-ylmethyl]-acetamide]: the MIC against S. aureus UC-76 is 4 µg/mL (≈ 9.54 µM); in the series with E. faecalis MGH-2, 4 µg/mL (≈ 9.54 µM); with E. coli Tol C, more than 64 µg/mL; in the series with M. catarrhalis BC3534 it was more than 64 µg/mL; with S pyogenes C203 it was 1 µg/mL (≈ 2.38 µM); with H. influenzae HI3542 it was 4 µg/mL (≈ 9.54 µM).
As for `CC(=O)NC[C@H]1CN(c2ccc3c(c2)OCCc2cn[nH]c2-3)C(=O)O1` [Example 37, (S)—N-[3-(4,5-Dihydro-1H-6-oxa-1,2-diaza-benzo[e]azulen-8-yl)-2-oxo-oxazolidin-5-ylmethyl]-acetamide], the MIC is 2 µg/mL (≈ 5.84 µM) against S. aureus UC-76; 2 µg/mL (≈ 5.84 µM) in the series on E. faecalis MGH-2; more than 64 µg/mL in the series on E. coli Tol C; 0.5 µg/mL (≈ 1.46 µM) with S pyogenes C203; 8 µg/mL (≈ 23.4 µM) with H. influenzae HI3542. The “MIC M. catarrhalis BC3534” value in the series on M. catarrhalis BC3534 turned out to be 4 µg/mL (≈ 11.7 µM).
In the case of `CC(=O)NC[C@H]1CN(c2ccc3c(c2)OCCc2cnoc2-3)C(=O)O1` [Example 38, (S)—N-[3-(4,5-Dihydro-1,6-dioxa-2-aza-benzo[e]azulen-8-yl)-2-oxo-oxazolidin-5-ylmethyl]-acetamide], the MIC in the series on S. aureus UC-76 was 1 µg/mL (≈ 2.91 µM); in the series on E. faecalis MGH-2 it was 1 µg/mL (≈ 2.91 µM); in the series with E. coli Tol C, more than 64 µg/mL; against S pyogenes C203 it was 0.5 µg/mL (≈ 1.46 µM); in the series on H. influenzae HI3542, 4 µg/mL (≈ 11.7 µM).
With `CC(=O)NC[C@H]1CN(c2ccc3c(c2)OCCc2cn(C)nc2-3)C(=O)O1` [Example 39, (S)—N-[3-(2-Methyl4,5-dihydro-2H-6-oxa-1,2-diaza-benzo[e]azulen-8-yl)-2-oxo-oxazolidin-5-ylmethyl]-acetamide], the MIC was more than 64 µg/mL against S. aureus UC-76; 32 µg/mL (≈ 89.8 µM) against E. faecalis MGH-2; more than 64 µg/mL in the series with E. coli Tol C; more than 64 µg/mL with M. catarrhalis BC3534; 32 µg/mL (≈ 89.8 µM) in the series on S pyogenes C203; more than 64 µg/mL in the series with H. influenzae HI3542.
On to `CC(=O)NC[C@H]1CN(c2ccc3c(c2)OCCc2cn[nH]c2-3)C(=O)O1` [drawing 124], for which the “MIC E. coli Tol C” value with E. coli Tol C was more than 64 µg/mL. For the same molecule, the “MIC M. catarrhalis BC3534” value against M. catarrhalis BC3534 is 16 µg/mL (≈ 46.7 µM). In addition, the “MIC H. influenzae HI3542” value in the series on H. influenzae HI3542 stood at 8 µg/mL (≈ 23.4 µM).
Regarding “(S)—N-[2-Oxo-3-(2-phenethyl-4,5-dihydro-2H-6-oxa-1,2-diaza-benzo[e]azulen-8-yl)-oxazolidin-5-ylmethyl]-acetamide and (S)—N-[2-Oxo-3-(1-phenethyl-4,5-dihydro-1H-6-oxa-1,2-diaza-benzo[e]azulen-8-yl)-oxazolidin-5-ylmethyl]-acetamide [Example 42]”, the “MIC S. aureus UC-76” value against S. aureus UC-76 was 32 µg/mL. The “MIC E. faecalis MGH-2” value against E. faecalis MGH-2 was found to be 32 µg/mL. Further, the “MIC E. coli Tol C” value against E. coli Tol C is more than 64 µg/mL. Besides, the “MIC M. catarrhalis BC3534” value against M. catarrhalis BC3534 is more than 64 µg/mL. For the same molecule, the “MIC S pyogenes C203” value with S pyogenes C203 amounted to 32 µg/mL. In addition, the “MIC H. influenzae HI3542” value against H. influenzae HI3542 was more than 64 µg/mL.
Regarding “(S)—N-[3-(2-Benzyl-4,5-dihydro-2H-6-oxa-1,2-diaza-benzo[e]azulen-8-yl)-2-oxo-oxazolidin-5-ylmethyl]-acetamide and (S)—N-[3-(1-Benzyl-4,5-dihydro-1H-6-oxa-1,2-diaza-benzo[e]azulen-8-yl)-2-oxo-oxazolidin-5-ylmethyl]-acetamide [Example 41]”, the “MIC S. aureus UC-76” value against S. aureus UC-76 was more than 64 µg/mL. The “MIC E. faecalis MGH-2” value in the series with E. faecalis MGH-2 was more than 64 µg/mL. Moreover, the “MIC E. coli Tol C” value against E. coli Tol C was more than 64 µg/mL. The “MIC M. catarrhalis BC3534” value against M. catarrhalis BC3534 was more than 64 µg/mL. In the series on S pyogenes C203, the “MIC S pyogenes C203” value came out at 32 µg/mL. Besides, in the series with H. influenzae HI3542, the “MIC H. influenzae HI3542” value was more than 64 µg/mL.
As for “(S)—N-[3-(2-Ethyl-4,5-dihydro-2H-6-oxa-1,2-diaza-benzo[e]azulen-8-yl)-2-oxo-oxazolidin-5-ylmethyl]-acetamide and (S)—N-[3-(1-Ethyl-4,5-dihydro-1H-6-oxa-1,2-diaza-benzo[e]azulen-8-yl)-2-oxo-oxazolidin-5-ylmethyl]-acetamide [Example 40]”, the “MIC S. aureus UC-76” value in the series on S. aureus UC-76 was more than 64 µg/mL. In the series on E. faecalis MGH-2, the “MIC E. faecalis MGH-2” value was more than 64 µg/mL. Besides, the “MIC E. coli Tol C” value against E. coli Tol C was more than 64 µg/mL. Also, the “MIC M. catarrhalis BC3534” value in the series with M. catarrhalis BC3534 was more than 64 µg/mL. For the same molecule, the “MIC S pyogenes C203” value against S pyogenes C203 came out at 32 µg/mL. In addition, the “MIC H. influenzae HI3542” value in the series on H. influenzae HI3542 was more than 64 µg/mL.

The values are drawn from patent publication US20050277630A1, “Antibacterial agents” (priority 2003, published 2005).
